We go through five compounds from US5747482A, “Methods and compositions to inhibit keratinocyte proliferation” (priority 1996, dated 1998).

Molecules are shown by their SMILES. Read-outs that look alike come from different tables or passages of the source.

The test system of data set [1] is keratinocyte cells. Format: cell-based, human. The conditions noted are these: for induction of apoptosis: 24 hours treatment. The text has this: (§1) Adult human keratinocytes from pooled donor skin were obtained from commercial sources (Cascade Biologics, Portland, Oreg., U.S.A.) and placed in 150 cm^2 bottom area culture flasks using culture medium 154 supplemented with HKGS (about 1%). At 80% confluency, cells were harvested with trypsin and cryopreserved until required.
The induction of apoptosis is a critical feature in the programmed cell death as it relates to disease conditions such as cancer, psoriasis, etc. where the uncontrolled proliferation of "immortal" cells such as keratinocytes is a causative feature of the disease. This example compares the ability of gallium maltol to induce apoptosis as compared to negative control (no gallium maltol), and positive control (CAM--an agent known to strongly induce apoptosis). The ability for gallium maltol to effect apoptosis was also measured by the inhibitory effect of ATA.
Specifically, keratinocyte cells were grown using medium 154 in 24 well plates seed with 2,500 cells/cm^2 as described above. Cultures were continued for 3 or 6 days when the cells had achieved about 20 or 60% confluence respectively. On these 2 occasions, media were aspirated from groups of 3 or 4 wells and replaced with high Ca^+2 medium either without supplement or with one of the following supplements:
1. Gallium maltol at a final concentration of one of the following: (a) 5×10^-4 M, (b) 1×10^-4 M, (c) 5×10^-5 M, (d) 1×10^-5 M, and (e) 1×10^-6 M;
4. As in (3) plus CAM at 1×10^-5 or 1×10^-6 M; and
5. As in (3) plus gallium maltol at 1×10^-4 or 2.5×10^-4 M;
(§2) Culture was renewed for a further 24 hours. At this time, media were removed and discarded, and the cells lysed with 200 μL/well of the solution provided in the Cell Death Detection Kit ELISA Plus (Boehringer Mannheim Biochemicals, Indianapolis, Ind., U.S.A., catalogue number 1774425). Aliquots of the lysate (20 μL) from each of 2 or 3 wells were assayed for nucleosomal enrichment following the kit instructions.

Data set [2] relates to keratinocyte cells. Format: cell-based, human. The conditions noted are these: gallium nitrate 5×10^-4 M; maltol 15×10^-4 M; 2 days treatment, 1.2 mM Ca^+2; FIG. 7. The method, then: as §1, §2
The evaluation of apoptosis of keratinocytes was conducted to determine the relative affect on apoptosis achieved by gallium maltol, gallium nitrate and maltol. Specifically, keratinocyte cells were seeded in 12 well plates seed using culture medium 154. Cultures were continued for 4 days and the medium was changed to medium 154 with 1.2 mM Ca^+2 either without supplement or with one of the following supplements:
1. gallium maltol at a final concentration of 5×10^-4 M;
2. gallium nitrate at a final concentration of 5×10^-4 M;
3. maltol at a concentration of 15×10^-4 M; and
4. CAM at a concentration of 1×10^-5 M.
Three (3) wells were used in each group. The final amount of medium was 300 μL in each well. Culture was continued for 2 days. Bars represent absorbance at 405 nm minus the absorbance at 492 nm.

For data set [3] the following is noted: oral; cited from earlier work.
In the next data set the test system is Keratinocytes. Nature of the data set: Comparison of keratinocyte growth inhibition by gallium maltol, gallium nitrate and maltol, Example 3. The conditions noted are these: gallium nitrate 1×10^-4 M; maltol 3×10^-4 M; 9 days, high Ca^+2 medium; FIG. 3. Type of data set: cell-based, human.
Description: as §1
At the start of the experiments, the required number of vials of keratinocytes was thawed, and the keratinocytes were placed in culture in 24 well plates at about 2,500 cells/cm^2 using the same culture medium as described above. After 24 hours (to allow attachment), the medium was changed to fresh 154 supplemented with HKGS (about 1%) and gallium maltol. Specifically, the fresh medium was prepared by addition of a sufficient amount of a stock solution to provide for six different compositions having a final gallium concentration of 10^-4 M, 10^-5 M, 10^-6 M, 10^-8 M, 10^-10 M, and 10^-12 M. The stock solution was prepared by adding 22.25 mg of gallium maltol to 50 mL of 154 medium and then passing the solution through a 0.2 μm filter and storing at 4° C.
When control cells were about 40% confluent (generally at 4-5 days in culture, all media were removed by aspiration, keratinocyte growth was assayed by crystal violet staining and conversion to cell numbers as described by Wilkinson, et al.^11. Specifically, cell layers rinsed in PBS, which was also aspirated, and 4 drops of crystal violet solution added to each well. The crystal violet solution was prepared by dissolving crystal violet (Fisher Scientific) in PBS:formaldehyde:ethanol (67:3:30%) to give a 0.5 w/v solution. A blank 24-well plate was treated similarly.
Keratinocytes were cultured in 24-well plates for 9 days in the manner described above in Example 2. […]
The cells were then cultured and subsequently evaluated for inhibition of keratinocyte proliferation in the manner described above.

Take `CC[C@@]1(O)C(=O)OCc2c1cc1n(c2=O)Cc2cc3ccccc3nc2-1` [CAM, camptothecin, reference compound]: the induction of apoptosis result was “strongly induced apoptosis” in the data set with keratinocyte cells [1] (1×10^-5 M, cultured 3 days prior, FIG. 5) and “strongly induced apoptosis” in the data set with keratinocyte cells [1] (1×10^-6 M, cultured 6 days prior, FIG. 6).

With `Cc1occc(=O)c1O` [maltol, 3-hydroxy-2-methyl-4-pyrone], the effect on apoptosis entry in the data set on keratinocyte cells [2] is listed as “no significant effect on apoptosis”. Further, the “toxicity when taken orally” value in data set [3] is “very low toxicities when taken orally”. For the same compound, the “effect on keratinocyte proliferation” value in the data set with Keratinocytes is “neither gallium nitrate nor maltol had any effect on keratinocyte proliferation”.

Regarding `O=[N+]([O-])[O-].O=[N+]([O-])[O-].O=[N+]([O-])[O-].[Ga+3]` [gallium nitrate], in the data set with keratinocyte cells [2], the effect on apoptosis entry is given as “no significant effect on apoptosis”. In addition, the “effect on keratinocyte proliferation” value in the data set with Keratinocytes was “neither gallium nitrate nor maltol had any effect on keratinocyte proliferation”.

As to `CCc1occc(=O)c1O` [ethyl maltol, 3-hydroxy-2-ethyl-4-pyrone], the “toxicity when taken orally” value in data set [3] is recorded as “very low toxicities when taken orally”.

With `O=C(O)C1=CC(=C(c2ccc(O)c(C(=O)O)c2)c2ccc(O)c(C(=O)O)c2)C=CC1=O` [ATA, aurin tricarboxylic acid, reference compound], the “reduction of CAM-induced apoptosis” value with keratinocyte cells [1] (1×10^-4 M ATA + 1×10^-5 M CAM, cultured 3 days prior, FIG. 5) was “reduced by half”; in the data set on keratinocyte cells [1] (1×10^-4 M ATA + 1×10^-6 M CAM, cultured 6 days prior, FIG. 6) it was “reduced by half”.
